pIC50, pKd: −log10 of the molar value.
How the values were obtained:
GLP recombinant protein = target: T1, GLP recombinant protein (Homo sapiens, UniProt Q9H9B1); assay: Isothermal titration calorimetry (ITC) of GLP inhibitors binding to GLP; conditions: 25 °C, 20 mM Tris pH 8.0, 150 mM NaCl, 2% DMSO, 50 μM AdoMet; for pKd: 10 μM GLP, 100 μM inhibitor, one-site binding model, read-out: dissociation constant KD (ITC); for −TΔS (ITC): calculated from ΔG = ΔH − TΔS
T1 construct: purchased Active Motif, Inc. 31920
T1 sequence (Q9H9B1 1-1298): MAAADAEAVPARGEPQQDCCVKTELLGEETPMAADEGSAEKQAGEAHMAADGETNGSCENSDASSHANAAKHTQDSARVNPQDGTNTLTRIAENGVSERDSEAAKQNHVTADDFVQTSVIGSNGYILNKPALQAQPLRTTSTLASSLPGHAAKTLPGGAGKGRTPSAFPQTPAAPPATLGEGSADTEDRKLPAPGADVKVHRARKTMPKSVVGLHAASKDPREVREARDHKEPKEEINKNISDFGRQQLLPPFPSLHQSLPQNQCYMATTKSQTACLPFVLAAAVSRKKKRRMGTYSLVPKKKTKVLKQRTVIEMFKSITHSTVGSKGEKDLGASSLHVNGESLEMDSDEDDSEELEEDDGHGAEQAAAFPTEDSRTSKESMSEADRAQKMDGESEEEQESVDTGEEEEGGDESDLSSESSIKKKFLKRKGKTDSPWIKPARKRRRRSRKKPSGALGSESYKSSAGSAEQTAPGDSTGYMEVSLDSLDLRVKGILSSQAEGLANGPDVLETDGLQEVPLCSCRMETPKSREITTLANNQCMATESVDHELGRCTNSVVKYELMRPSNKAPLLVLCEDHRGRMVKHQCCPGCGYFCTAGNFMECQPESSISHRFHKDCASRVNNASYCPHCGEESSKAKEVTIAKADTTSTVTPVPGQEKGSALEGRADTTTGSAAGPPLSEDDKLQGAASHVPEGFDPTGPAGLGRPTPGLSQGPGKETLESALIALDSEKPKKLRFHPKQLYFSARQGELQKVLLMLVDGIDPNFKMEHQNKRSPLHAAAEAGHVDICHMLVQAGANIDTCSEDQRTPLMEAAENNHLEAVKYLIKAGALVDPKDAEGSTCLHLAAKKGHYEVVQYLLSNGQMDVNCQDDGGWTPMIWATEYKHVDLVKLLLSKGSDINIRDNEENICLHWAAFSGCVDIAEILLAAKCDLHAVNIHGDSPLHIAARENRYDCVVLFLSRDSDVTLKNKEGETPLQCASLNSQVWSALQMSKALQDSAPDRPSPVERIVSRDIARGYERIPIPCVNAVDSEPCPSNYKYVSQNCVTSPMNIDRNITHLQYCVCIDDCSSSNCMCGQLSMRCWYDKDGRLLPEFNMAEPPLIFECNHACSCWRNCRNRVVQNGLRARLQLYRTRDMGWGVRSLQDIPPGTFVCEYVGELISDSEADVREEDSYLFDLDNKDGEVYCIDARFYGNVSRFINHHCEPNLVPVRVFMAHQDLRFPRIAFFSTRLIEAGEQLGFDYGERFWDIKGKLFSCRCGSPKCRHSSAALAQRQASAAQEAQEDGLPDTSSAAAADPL
Description: A GLP recombinant protein solution (Catalog #31920, Active Motif, Inc.) was concentrated by ultrafiltration and the buffer was replaced with test buffer (20 mM Tris pH 8.0, 150 mM NaCl, 2% DMSO and 50 μM AdoMet). ITC measurements of GLP inhibitors binding to the GLP were recorded at 25 °C using a MicroCal PEAQ-ITC microcalorimeter (Malvern Panalytical) in the test buffer. The titrations were performed using 10 μM GLP solution in the sample cell and 100 μM inhibitor solution in the syringe. A typical experiment consisted of 19 injections under the following parameters: one injection of 0.4 μL followed by 18 injections of 2.0 μL; 150 s spacing between injections; 750 rpm stirring speed; and reference power set to 5 μcal s^−1. The heat of dilution of the ligand into the buffer measured independently was essentially similar to the heat signal obtained at the end of the titration; so the signal of the last injection was used as the background heat signal. The experimental data were analyzed using the MicroCal PEAQ-ITC Analysis software (Malvern Panalytical), and fitted using the one-site binding model. Values of ΔG, KD, and −TΔS were calculated using the thermodynamic relationships, ΔG = −RT lnKa, KD = 1/Ka, and ΔG = ΔH − TΔS.
Figure S20. Determination of the disassociation constant and thermodynamic parameters of 14a–14c by isothermal titration calorimetry (ITC). (A–C) The binding of (A) 14a, (B) 14b and (C) 14c to GLP are measured by ITC. The titrations were conducted in buffer containing 20 mM Tris pH 8.0, 150 mM NaCl, 2% DMSO and 50 μM AdoMet. The sample chamber and syringe were filled with 10 μM GLP and 100 μM inhibitor, respectively. (D) Summary of disassociation constant and thermodynamic parameter profiles of 14a–14c.

G9a-like protein (GLP) = target: T2, G9a-like protein (GLP) (Homo sapiens, UniProt Q9H9B1); assay: GLP activity assay (GLP Chemiluminescent Assay Kit); format: biochemical; conditions: for pIC50: 2 μM SAM, 40 ng GLP, 120 min, room temperature, mean values of at least three experiments, read-out: In vitro GLP-inhibitory activity IC50
T2 construct: purchased BPS Bioscience, Inc. 53007
T2 sequence (Q9H9B1 1-1298): T1 sequence (Q9H9B1 1-1298)
Description: The GLP activity assay was carried out using a GLP Chemiluminescent Assay Kit (Catalog #53007, BPS Bioscience, Inc.). Microwells were rehydrated by adding 200 μL of tris buffered saline with Tween 20 (TBS-T: 1x TBS, pH = 8.0, containing 0.05% Tween-20) to every well, followed by incubation at room temperature for 45 minutes. After removing TBS-T, the inhibitors were incubated in the presence of 2 μM SAM and 40 ng of GLP in the supplied buffer on the microwells of (120 min, room temperature, total volume: 50 μL). After the enzymatic reaction, every well was washed three times with TBS-T (100 μL) and blocked for 10 min with blocking buffer. Then, 100 μL of primary anti-body solution (1:400 dilution) were added to the microwells, followed by incubation (2 h). The wells were probed with the primary antibody, washed three times with TBS-T (100 μL), incubated (2 h, room temperature) with sheep secondary anti-body (1:1000 diluted), and again washed three times with TBS-T (100 μL). The chemiluminescence of the wells, to which detection reagents were added, was measured on a chemiluminescence reader (ARVO X3 Multilabel Plate Reader), and the values of % inhibition were calculated from the chemiluminescence readings of inhibited wells relative to those of control wells.

With `CNCCCNc1nc(NC2CCN(Cc3ccccc3)CC2)c2cc(OC)c(OC)cc2n1` [Compound 14b, N^4-(1-Benzylpiperidin-4-yl)-6,7-dimethoxy-N^2-[3-(methylamino)propyl]quinazoline-2,4-diamine] the “ΔH (ITC)” value (GLP recombinant protein) was -8.58 kcal/mol, the pKd (GLP recombinant protein) was 6.21 and the “−TΔS (ITC)” value (GLP recombinant protein) was 0.10 kcal/mol. For the same molecule, the pIC50 (G9a-like protein (GLP)) was 6.18.

In the case of `COc1cc2nc(NCCCN(C)C)nc(NC3CCN(Cc4ccccc4)CC3)c2cc1OC` [Compound 14a], the “ΔH (ITC)” value (GLP recombinant protein) was -10.7 kcal/mol, the pKd (GLP recombinant protein) was 6.77 and the “−TΔS (ITC)” value (GLP recombinant protein) was 1.42 kcal/mol. The pIC50 (G9a-like protein (GLP)) was 6.81.

In the case of `COc1cc2nc(NCCCN)nc(NC3CCN(Cc4ccccc4)CC3)c2cc1OC` [Compound 14c], the “ΔH (ITC)” value (GLP recombinant protein) was -7.04 kcal/mol, the pKd (GLP recombinant protein) was 6.03 and the “−TΔS (ITC)” value (GLP recombinant protein) was -1.19 kcal/mol. It also gave a pIC50 (G9a-like protein (GLP)) of 5.84.

In the case of `COc1cc2nc(NCCCC(C)C)nc(NC3CCN(Cc4ccccc4)CC3)c2cc1OC` [Compound 14d], the “GLP inhibition (result in words)” value (G9a-like protein (GLP); up to 3 μM) was “did not show any GLP inhibition”.

From publication PMC6347603, “N^+-C-H···O Hydrogen bonds in protein-ligand complexes” (Scientific Reports, 2019)
